Assay results from PubChem BioAssay AID1963854 (Molecular Pharmacology Branch, DTP, NCI, 2024).
Where “and” joins values, the source holds several entries; their conditions need not be identical. Equal entries are not always repeated.

Test system: 186277-243-T-J2-PDC complex spheroid viability
Assay: Anticancer human tumor 186277-243-T-J2-PDC patient-derived colon adenocarcinoma cell line growth inhibition [POLQ]
Conditions: for viability, T/C: stronger effect = lower value
Experimental: Multicellular complex tumor spheroid response to Polymerase (POL) inhibitors (novobiocin, ART-558, RP6685) in combination with a variety of drugs and investigational agents in selected tumor cell lines
The POL inhibitors (novobiocin, ART-558, and RP6685) were evaluated both individually and in combination with standard of care and investigational anticancer small molecules within a complex spheroid model of solid tumors. . Complex spheroids include a stromal component modeled by human endothelial cells (HUVEC) and fibroblasts modeled by human mesenchymal stem cells (MSCs). The concentration ranges selected for each drug and investigational agent were based upon clinically achievable concentrations if the clinical Cmax of the agent was known.
Compounds. The drugs and investigational agents: novobiocin (NSC847541), ART-558 (NSC835418), RP-6685 (NSC848927), peposertib (NSC802822), ceralasertib (NSC780249), elimusertib (NSC800525), camonsertib (NSC841442), AZD-1390 (NSC803789), olaparib (NSC753686), talazoparib (NSC767125), rucaparib (NSC756644), sotorasib (NSC818433), MRTX-1133 (NSC836407), SN-38 (NSC673596), topotecan (NSC609699), epotoside (NSC141540), doxorubicin (NSC123127), gemcitabine (NSC613327), 5-fluorouracil (NSC19893), paclitaxel (NSC125973), vemurafenib (NSC761431), MSA-2 (NSC828583), SN-011 (NSC837082), adavosertib (NSC754352), prexasertib (NSC758257), carboplatin (NSC241240) and oxaliplatin (NSC266046), were obtained from the National Cancer Institute (NCI) Developmental Therapeutics Program Chemical Repository (21). The FDA-approved anticancer drug set is available from the Developmental Therapeutics Program at https://dtp.cancer.gov/organization/dscb/obtaining/. […] The stock solutions were prepared in dimethyl sulfoxide (DMSO, Sigma-Aldrich, St. Louis, MO, cat. D2650), except for the platinum compounds which were prepared in saline (Quality Biological, Gaithersburg, MD, cat. 114-055-101), at 800-fold the tested concentration and stored at -70 degrees C prior to their use. All drugs and investigational agents were tested over a range starting from a high concentration at or near the clinical Cmax and decreasing in half-log increments. If the clinical Cmax for an agent had not been determined, the highest concentration tested was 10 microM, except for SN-38, which was tested at a high concentration of 1 microM.
Cell Culture. All cells were maintained in an incubator at 37 degrees C and 5% CO2 with 95% humidity. The PDC lines were cultured according to standard operating procedures established by the NCI PDMR (https://pdmr.cancer.gov). Table 3 of the manuscript, lists the cell lines along with the number of the three cell types plated to form the mct-spheroids and media for tumor cell growth. After thawing, all PDC lines, except 997537-175-T-J1-PDC and 415267-285-R-J2-PDC, were cultured in Matrigel-coated flasks prepared with a working solution of 1X Ham's F-12 nutrient mix, without supplementation (Thermo Fisher Scientific, cat. 11765054), 100 U/mL penicillin-streptomycin (Thermo Fisher Scientific, cat. 15140122), and 2.5% Matrigel (Corning Inc., Corning, NY, cat. 354248) for the first three passages. The two PDC lines 997537-175-T-J1-PDC and 415267-285-R-J2-PDC were cultured on uncoated flasks. The 857933-349-R-J2-PDC line was cultured in 6C/Colon 1B media containing advanced DMEM/F-12 (Thermo Fisher Scientific, cat. 12634028), 10 mM HEPES (Thermo Fisher Scientific, cat. 15630080), 1X GlutaMAX supplement (Thermo Fisher Scientific, cat. 35050061), 0.1 mg/mL primocin (InvivoGen, San Diego, CA, cat. ant-pm-2), 10% defined fetal bovine serum, heat inactivated (HyClone Laboratories Inc., Logan, UT, cat. SH30070.03HI), 50% L-WRN conditioned media (ATCC, cat. CRL-3276), 1.25 mM N-Acetyl-L-cysteine (Sigma-Aldrich, cat. A9165), 10 mM nicotinamide (Sigma-Aldrich, cat. N0636), 1X B-27 supplement (Thermo Fisher Scientific, cat. 17504044), 1X N-2 supplement (Thermo Fisher Scientific, cat. […]
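Further: spheroids exposed to compounds for seven days.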
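Wherever viability, T/C is given: 100% = DMSO vehicle control viability.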

Cn1ncnc1[C@H]1c2n[nH]c(=O)c3cc(F)cc(c23)N[C@@H]1c1ccc(F)cc1
viability, T/C (compound 0.000316 µM): 102% and 96.7% and 107%
viability, T/C (compound 0.001 µM): 100% and 97.4% and 94.3%
viability, T/C (compound 0.00316 µM): 104% and 101% and 97%
viability, T/C (compound 0.01 µM): 118% and 100% and 105%
viability, T/C (compound 0.0316 µM): 118% and 137% and 114%
viability, T/C (compound 0.1 µM): 109% and 124% and 103%
IC50 (curve of compound): > 100 nM

CC(C)n1c(=O)n(C)c2cnc3cc(F)c(-c4ccc(OCCCN5CCCCC5)nc4)cc3c21
viability, T/C (compound 0.0316 µM): 86.3% and 111% and 107%
viability, T/C (compound 0.1 µM): 104% and 91.8% and 97.7%
viability, T/C (compound 0.316 µM): 89.3% and 95.6% and 91.6%
viability, T/C (compound 1 µM): 100% and 98.3% and 88.6%
viability, T/C (compound 3.16 µM): 100% and 98.2% and 98.4%
viability, T/C (compound 10 µM): 86% and 92.2% and 96.9%
IC50 (curve of compound): > 10000 nM

Nc1ccn(C2OC(CO)C(O)C2(F)F)c(=O)n1 (stereo not given)
viability, T/C (compound 0.0316 µM): 7.08% and 13.1% and 7.05%
viability, T/C (compound 0.1 µM): 6.01% and 12.5% and 5.9%
viability, T/C (compound 0.316 µM): 7.05% and 13.8% and 6.01%
viability, T/C (compound 1 µM): 8.16% and 14.3% and 6.86%
viability, T/C (compound 3.16 µM): 7.56% and 13.9% and 6.67%
viability, T/C (compound 10 µM): 6.46% and 13.6% and 5.49%
IC50 (curve of compound): < 31.6 nM

CC(=O)O[C@H]1C(=O)[C@@]2(C)[C@H]([C@H](OC(=O)c3ccccc3)[C@]3(O)C[C@H](OC(=O)[C@H](O)[C@@H](NC(=O)c4ccccc4)c4ccccc4)C(C)=C1C3(C)C)[C@]1(OC(C)=O)CO[C@@H]1C[C@@H]2O
viability, T/C (compound 0.00949 µM): 38.5% and 44.7% and 19.1%
viability, T/C (compound 0.03 µM): 10.6% and 11.3% and 5.03%
viability, T/C (compound 0.0949 µM): 7.36% and 7.77% and 3.51%
viability, T/C (compound 0.3 µM): 5.49% and 5.99% and 2.78%
viability, T/C (compound 0.949 µM): 5.37% and 6% and 2.77%
viability, T/C (compound 3 µM): 4.97% and 5.56% and 2.45%
IC50 (curve of compound): < 9.49 nM

CC1COCCN1c1cc(-c2ccnn2C)c2ccnc(-c3ccn[nH]3)c2n1 (stereo not given) + Cc1cccc(N(C)C(=O)C2C(O)CCN2c2nc(C)cc(C(F)(F)F)c2C#N)c1
IC50 (curve of first compound, second compound 0.0316 µM): 41.5 nM
IC50 (curve of first compound, second compound 0.1 µM): 46.8 nM
IC50 (curve of first compound, second compound 0.316 µM): 50.4 nM
IC50 (curve of first compound, second compound 1 µM): 48.9 nM
IC50 (curve of first compound, second compound 3.16 µM): 46.8 nM
IC50 (curve of first compound, second compound 10 µM): 41.7 nM
viability, T/C (second compound 0.0316 µM, first compound 0.0316 µM): 61.5%
viability, T/C (second compound 0.0316 µM, first compound 0.1 µM): 13%
viability, T/C (second compound 0.0316 µM, first compound 0.316 µM): 5%
viability, T/C (second compound 0.0316 µM, first compound 1 µM): 4.41%
viability, T/C (second compound 0.0316 µM, first compound 3.16 µM): 4.26%
viability, T/C (second compound 0.0316 µM, first compound 10 µM): 4.75%
viability, T/C (second compound 0.1 µM, first compound 0.0316 µM): 69.2%
viability, T/C (second compound 0.1 µM, first compound 0.1 µM): 12.7%
viability, T/C (second compound 0.1 µM, first compound 0.316 µM): 5.72%
viability, T/C (second compound 0.1 µM, first compound 1 µM): 4.22%
viability, T/C (second compound 0.1 µM, first compound 3.16 µM): 3.97%
viability, T/C (second compound 0.1 µM, first compound 10 µM): 4.43%
viability, T/C (second compound 0.316 µM, first compound 0.0316 µM): 74.4%
viability, T/C (second compound 0.316 µM, first compound 0.1 µM): 14.2%
viability, T/C (second compound 0.316 µM, first compound 0.316 µM): 5.49%
viability, T/C (second compound 0.316 µM, first compound 1 µM): 4.49%
viability, T/C (second compound 0.316 µM, first compound 3.16 µM): 3.63%
viability, T/C (second compound 0.316 µM, first compound 10 µM): 4.89%
viability, T/C (second compound 1 µM, first compound 0.0316 µM): 72.3%
viability, T/C (second compound 1 µM, first compound 0.1 µM): 13.7%
viability, T/C (second compound 1 µM, first compound 0.316 µM): 6.05%
viability, T/C (second compound 1 µM, first compound 1 µM): 4.53%
viability, T/C (second compound 1 µM, first compound 3.16 µM): 4.55%
viability, T/C (second compound 1 µM, first compound 10 µM): 5.17%
viability, T/C (second compound 3.16 µM, first compound 0.0316 µM): 68.1%
viability, T/C (second compound 3.16 µM, first compound 0.1 µM): 15.1%
viability, T/C (second compound 3.16 µM, first compound 0.316 µM): 5.47%
viability, T/C (second compound 3.16 µM, first compound 1 µM): 4.21%
viability, T/C (second compound 3.16 µM, first compound 3.16 µM): 4.54%
viability, T/C (second compound 3.16 µM, first compound 10 µM): 4.6%
viability, T/C (second compound 10 µM, first compound 0.0316 µM): 62.2%
viability, T/C (second compound 10 µM, first compound 0.1 µM): 11.4%
viability, T/C (second compound 10 µM, first compound 0.316 µM): 4.96%
viability, T/C (second compound 10 µM, first compound 1 µM): 3.76%
viability, T/C (second compound 10 µM, first compound 3.16 µM): 5.16%
viability, T/C (second compound 10 µM, first compound 10 µM): 4.53%
